Molecules are shown by their SMILES. Counter-ions that a name gives are not always drawn.

Chain of 5HT2B receptor (P41595 whole entry): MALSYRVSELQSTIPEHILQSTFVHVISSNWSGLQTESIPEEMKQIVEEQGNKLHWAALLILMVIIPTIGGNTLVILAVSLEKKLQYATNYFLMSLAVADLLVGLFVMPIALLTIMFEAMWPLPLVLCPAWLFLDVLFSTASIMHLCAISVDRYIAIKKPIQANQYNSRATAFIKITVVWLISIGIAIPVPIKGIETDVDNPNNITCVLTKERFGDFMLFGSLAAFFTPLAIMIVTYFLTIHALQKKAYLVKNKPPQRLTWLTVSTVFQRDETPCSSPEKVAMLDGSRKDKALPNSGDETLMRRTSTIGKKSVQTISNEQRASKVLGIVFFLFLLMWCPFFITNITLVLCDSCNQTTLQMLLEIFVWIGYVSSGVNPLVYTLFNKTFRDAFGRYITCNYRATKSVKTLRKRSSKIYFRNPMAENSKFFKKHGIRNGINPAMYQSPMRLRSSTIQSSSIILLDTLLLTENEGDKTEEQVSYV

One assay concerns the target 5HT2B receptor (Homo sapiens, UniProt P41595).
Experiment: not given
To be noted: 5HT2B receptor antagonists, Table 1; cited from earlier work.
Take `OC(c1ccccc1)C1CCN(CCc2ccccc2)CC1` (stereo not drawn) [MDL-11,939, α-phenyl-1-(2-phenylethyl)-4-piperidinemethanol]: the Affinity was 5.5 pKi. On to `COc1ccc2cccc(CCNC(C)=O)c2c1` [agomelatine, N-[2-(7-methoxynaphthalen-1-yl)ethyl]acetamide], for which the Affinity is 6.6 pKi. Regarding `Cn1ccc2cc3c(cc21)CCN3C(=O)Nc1cccnc1` [SB 206553, 5-methyl-1-(3-pyridylcarbamoyl)-1,2,3,5-tetrahydrolpyrrolo[2,3-f]indole], the Affinity was 7.6-8.5 pKi. As for `COc1cc2c(cc1C(F)(F)F)N(C(=O)Nc1cc(F)cc(-c3cccnc3)c1)CC2` [SB 228357, 1-5[-fluoro-3-(3-pyridyl)phenyl-carbamoyl]-5-methoxy-6-trifuoromethylindoline], the Affinity is 8.0-8.1 pKi. `CC(C)n1cc2c3c(cccc31)[C@H]1CC(C(=O)NC3CCCCC3)CN(C)[C@@H]1C2` (stereo partly drawn) [amesergide, N-Cyclohexyl-1-isopropyl-6-methylergoline-8-carboxamide]: the Affinity is 8.0 pKi. Consider `Cc1nc(-c2ccc(-c3ccc(C(=O)N4CCc5cc6c(cc54)C4(CCN(C)CC4)CO6)cc3)c(C)c2)no1` [SB 224289, 1′-methyl-5-[[2′-methyl-4′-(5-methyl-1,2,4-oxadiazol-3-yl)biphenyl-4-yl]carbonyl]-2,3,6,7-tetrahydrospiro[furo[2,3-f]indole-3,4′-piperidine hydrochloride], for which the Affinity is 5.9 pKi.

With `O=C1NCN(c2ccccc2)C12CCN(CC1COc3ccccc3O1)CC2` (stereo not drawn) [spiroxatrine, 8-(7,10-dioxabicyclo[4.4.0]deca-1,3,5-trien-8-ylmethyl)-4-phenyl-2,4,8-triazaspiro[4.5]decan-1-one], the Affinity is given as 6.3-6.8 pKi. For `CSc1cc2c(cc1C(F)(F)F)N(C(=O)Nc1cccnc1)CC2` [SB 221284, 5-(methylthio)-1-(3-pyridylcarbamoyl-6-trifluoromethyl)indoline], the Affinity was 8.6 pKi. `CN1CCC2CN3CCc4cccc(c43)C2C1` (single isomer, unassigned; (+)) [SDZ SER-082, (+)-cis-4,5,7a,8,9,10,11,11a-octahydro-7H-10-methylindolo[1,7-bc][2,6]-naphthyridine]: the Affinity is given as 6.7 pKi.

For the compound `NCCC(Oc1ccc(C(F)(F)F)cc1)c1ccccc1` (stereo not drawn) [norfluoxetine], the Affinity is given as 5.3 pKi. Take `Cn1ccc2cc(NC(=O)Nc3cccnc3)ccc21` [SB 200646, N-(1-Methyl-1H-indol-5-yl)-N′-3-pyridinylurea]: the Affinity is 7.4 pKi.

For `Cc1cc2c(cc1Cl)N(C(=O)Nc1cccc3ncccc13)CC2` [SB 215505, 6-chloro-5-methyl-1-(5-quinolylcarbamoyl)indoline], the Affinity is 8.3 pKi. For `O=C(CCCN1CCC2(CC1)C(=O)NCN2c1ccccc1)c1ccc(F)cc1` [spiperone, 8-[4-(4-fluorophenyl)-4-oxo-butyl]-1-phenyl-1,3,8-triazaspiro[4.5]decan-4-one], the Affinity is reported as 5.9-6.5 pKi. `Cc1cc([N+](=O)[O-])c(N2CCN(Cc3ccccc3)CC2)cc1N` [EGIS-7625, 1-benzyl-4-[(2-nitro-4-methyl-5-amino)-phenyl]-piperazine]: the Affinity is on record as 9.0 pKi.

On to `Cc1nc2sccn2c(=O)c1CCN1CCC(=C(c2ccc(F)cc2)c2ccc(F)cc2)CC1` [ritanserin, 4-[2-[4-[bis(4-fluorophenyl)methylidene]-1-piperidyl]ethyl]-3-methyl-9-thia-2,6-diazabicyclo[4.3.0]nona-1,3,7-trien-5-one], for which the Affinity is on record as 8.7-9.2 pKi. For `CC(C)C[C@H]1C(=O)N2CCC[C@H]2[C@]2(O)O[C@](NC(=O)[C@@H]3C=C4c5cccc6[nH]c(Br)c(c56)C[C@H]4N(C)C3)(C(C)C)C(=O)N12` [bromocriptine], the Affinity was 7.3 pKi. Take `CC(C)c1cc(-c2ccc(F)c3ccccc23)nc(N)n1` [RS-127445-190]: the Affinity was 9.5 pKi. For the compound `CCN(CC)C(=O)N[C@H]1C[C@@H]2c3cccc4[nH]cc(c34)C[C@H]2N(C)C1` [terguride, N,N-diethyl-N′-[(8α)-6-methylergolin-8-yl]urea], the Affinity is recorded as 8.2 pKi.

As to `Oc1ccc2[nH]cc(CCCCN3CC=C(c4ccccc4)CC3)c2c1` [roxindole, 3-[4-(4-phenyl-3,6-dihydro-2H-pyridin-1-yl)butyl]-1H-indol-5-ol], the Affinity is 7.5 pKi. `c1cnc(N2CCN(Cc3ccc4c(c3)OCO4)CC2)nc1` [piribedil, 2-[4-(1,3-benzodioxol-5-ylmethyl)piperazin-1-yl]pyrimidine]: the Affinity is reported as 5.9 pKi. `CC(O)C(C)OC(=O)C1CC2c3cccc4[nH]cc(c34)CC2N(C)C1` (stereo not drawn) [LY86057]: the Affinity is on record as 7.9 pKi. In the case of `COc1cc(OC)c(C(=O)CCCCN2CCC3(CC2)NC(=O)NC3=O)cc1NS(=O)(=O)c1ccc(C(F)(F)F)cc1` [RS-102221], the Affinity is recorded as 6.0-6.1 pKi. For `CCCCN1CCC(CNC(=O)c2c3n(c4ccccc24)CCCO3)CC1` [piboserod, N-((1-Butyl-4-piperidyl)-methyl)-3,4-dihydro-2H-(1,3)oxazino(3,2-a)-indole-10-carboxamide], the Affinity is recorded as 6.6 pKi. In the case of `CN1CCc2cccc3c2C1Cc1ccc(O)c(O)c1-3` (stereo not drawn) [apomorphine, 5,6,6a,7-Tetrahydro-6-methyl-4H-dibenzo[de,g]quinolin-10,11-diol], the Affinity is 6.9 pKi. On to `COc1cccc(CCc2ccccc2OCC(CN(C)C)OC(=O)CCC(=O)O)c1` (stereo not drawn) [sarpogrelate, 4-[1-dimethylamino-3-[2-[2-(3-methoxyphenyl)ethyl]phenoxy]-propan-2-yl]oxy-4-oxo-butanoic acid], for which the Affinity is recorded as 6.6 pKi.

The same assay, now with this note: cited from earlier work.
On to `Cc1cc2c(cc1Cl)N(C(=O)Nc1ccc(Oc3cccnc3C)nc1)CC2` [SB 242084, 6-chloro-5-methyl-1-[6-(-methylpyridin-3-yloxy)pyridin-3-ylcarbomyl]indoline], for which the Affinity is given as 6.8-7.0 pKi. For `CC(O)C(C)OC(=O)[C@@H]1C[C@@H]2c3cccc4c3c(cn4C(C)C)C[C@H]2N(C)C1.O=C(O)/C=C\C(=O)O` (stereo partly drawn) [LY53857, 6-Methyl-1-(1-methylethyl)ergoline-8β-carboxylic acid 2-hydroxy-1-methylpropyl ester maleate salt], the Affinity was 8.2 pKi. With `CC(C)c1cc(-c2ccc(F)c3ccccc23)nc(N)n1` [RS-127445], the Affinity is on record as 9.0 pKi.

Another assay concerns antigen-induced arthritis.
Experiment: not given
To be noted: Andersson et al. 2000; cited from earlier work.
With `CN(Cc1cnc2nc(N)nc(N)c2n1)c1ccc(C(=O)N[C@@H](CCC(=O)O)C(=O)O)cc1` [methotrexate], the “effect in the AIA model (literature)” value is on record as “anti-arthritic effect”.

The test system of another assay is rat synoviocytes. Briefly: IL-6 release from LPS-stimulated rat synoviocytes. It is filed as cell-based. To be noted: 1 μM 5-HT + LPS 50 ng/ml; test substance 0.1, 1 or 10 μM; 72 hours; FIG. 7A. The method, then: Pannus from the inflamed knee of rats with antigen-induced arthritis (AIA) (see description of this model below; Andersson, S. E et al., (1998), J. Rheumatology 25: 1772-1777) was isolated three to five days after challenge, stored in PBS supplemented with 100 U/ml Penicillin-Streptomycin (PEST, Invitrogen Corporation) and 2.5 μg/ml Fungizone (Amphotericin B, Invitrogen) until it was further processed within a couple of hours. The PBS was discarded and the tissue cut in small pieces followed by digestion in a collagenase solution (400 U/ml; type 1 CLS-1, Worthington) for 3 hours at 37° C., 5% CO2. The suspension was filtered through a nylon mesh (70 μm), washed with tissue culture medium (RPMI-1640 with L-glutamine, Invitrogen, supplemented with 10% fetal bovine serum (FBS) and 100 U/ml PEST and 2.5 μg/ml Fungizone) and centrifuged (257 g). The cells were resuspended in tissue culture medium and seeded in cell culture flasks (T25, TPP). After overnight culture, nonadherent cells were removed by exchanging the medium, the cells were incubated at 37° C., 5% CO2, the medium was exchanged every third day until confluence was reached (7-10 days). The culture consisted of a mixed cell population with the principal constituents being fibroblasts and macrophages (Andersson, S. E. et al. (2000), Eur. J. Pharm. Sci 9: 333-343).
The cells were counted and reseeded at a density of 10000 cells/0.2 ml in 96-well cell culture plates (Nunc). After overnight culture the cells were stimulated with 50 ng/ml Lipopolysaccharide (LPS, E. coli 055:B5, Sigma) with simultaneous addition of 0.1, 1 and 10 μM N-(2-chloro-3,4-dimethoxybenzylideneamino)guanidine and 1 μM of 5-HT2 receptor agonists (triplicates). The cells were incubated for 72 hours after which the supernatants were collected and analyzed for IL-6 (OptEIA™ Set Rat IL-6). The effect of treatment on cell viability was determined using the cell proliferation reagent, WST-1 (Roche Diagnostics).
Inflamed knee joints of rats with antigen-induced arthritis (AIA) were dissected four days after intra-articular challenge with antigen. Freshly isolated pannus tissue was collected in phosphate-buffered saline (PBS) supplemented with 100 U/ml penicillin, streptomycin (PEST, Invitrogen) and 2.5 μg/ml Fungizone (Amphotericin B, Invitrogen), finely minced with a pair of scissors and digested with 400 U/ml collagenase (type 1 CLS-1, Worthington) in RPMI 1640 (Gibco) supplemented with PEST and fungizone (2.5 μg/ml) for 3 hours. The cell suspension was filtered through a 70 μm nylon mesh and the cells collected by centrifugation at 257×g, 10 min. The cells were resuspended in RPMI 1640 supplemented with 10% FBS (Gibco), PEST and fungizone (culture medium), plated in T25 flasks (TPP Cat#90026). After overnight incubation nonadherent cells were removed and the culture medium was replaced every third day until the cells approached confluency (normally achieved within 7-10 days). At near-confluency, the cells were washed with PBS and harvested by trypsination. After washing in PBS the cells were resuspended in culture medium and seeded at 10.000 cells/well/0.2 ml in 96 well plates (Nunc cat#167008). After overnight culture the culture medium was replaced with fresh medium and 50 ng/ml LPS (Sigma, L6529) together with different concentrations of 5-HT, 5-HT2 receptor agonists and/or antagonists and N-(2-chloro-3,4-dimethoxybenzylideneamino)guanidine. The cells were incubated for 72 hours after which the supernatants were collected and analyzed for IL-6 (BD OptEIA™ Set). The effect of treatment on cell viability was determined using the cell proliferation reagent, WST-1 (Roche Diagnostics). In another experiment rat synoviocytes were incubated with 50 ng/ml LPS for 2 or 22 hours were after the levels of 5-HT was analysed in the cell culture medium using a Serotonin ELISA kit (IBL International, RE59121). We also incubated rat synoviocytes with 5-HT (10 μM) and measured the gene expression of 5-HT2B and 5-HT2C.
Turning to `Cc1cc2c(cc1Cl)N(C(=O)Nc1ccc(Oc3cccnc3C)nc1)CC2` [SB 242084, 6-chloro-5-methyl-1-[6-(-methylpyridin-3-yloxy)pyridin-3-ylcarbomyl]indoline], the “IL-6 release induced by 5-HT and LPS” value is given as “clearly reduced the IL-6 release”. Still for that read-out and setting: then `CC(C)c1cc(-c2ccc(F)c3ccccc23)nc(N)n1` [RS-127445], with “clearly reduced the IL-6 release”.

The same assay, now with this note: 1 μM agonist in the presence of LPS 50 ng/ml; 72 hours.
On to `CC(N)Cc1c[nH]c2ccc(OCc3cccs3)cc12` (stereo not drawn) [BW 723C86], for which the “IL-6 release on agonist stimulation” value is given as “induces a response in IL-6 production”. Same read-out and setting: under `NCCc1c[nH]c2ccc(O)cc12` [Example 5-HT, 5-Hydroxytryptamine] stands “clear increase in IL-6 release”.
